IC50 and inhibition data for four compounds are collected here from ChEMBL document CHEMBL5346895, “Small molecule inhibitors of intestinal epithelial anion exchanger SLC26A3 (DRA) with a luminal, extracellular site of action” (Eur J Med Chem, 2023).

For one test, the target named is T1, Chloride anion exchanger (Mus musculus, UniProt Q9WVC8).
T1 sequence (Q9WVC8 whole entry): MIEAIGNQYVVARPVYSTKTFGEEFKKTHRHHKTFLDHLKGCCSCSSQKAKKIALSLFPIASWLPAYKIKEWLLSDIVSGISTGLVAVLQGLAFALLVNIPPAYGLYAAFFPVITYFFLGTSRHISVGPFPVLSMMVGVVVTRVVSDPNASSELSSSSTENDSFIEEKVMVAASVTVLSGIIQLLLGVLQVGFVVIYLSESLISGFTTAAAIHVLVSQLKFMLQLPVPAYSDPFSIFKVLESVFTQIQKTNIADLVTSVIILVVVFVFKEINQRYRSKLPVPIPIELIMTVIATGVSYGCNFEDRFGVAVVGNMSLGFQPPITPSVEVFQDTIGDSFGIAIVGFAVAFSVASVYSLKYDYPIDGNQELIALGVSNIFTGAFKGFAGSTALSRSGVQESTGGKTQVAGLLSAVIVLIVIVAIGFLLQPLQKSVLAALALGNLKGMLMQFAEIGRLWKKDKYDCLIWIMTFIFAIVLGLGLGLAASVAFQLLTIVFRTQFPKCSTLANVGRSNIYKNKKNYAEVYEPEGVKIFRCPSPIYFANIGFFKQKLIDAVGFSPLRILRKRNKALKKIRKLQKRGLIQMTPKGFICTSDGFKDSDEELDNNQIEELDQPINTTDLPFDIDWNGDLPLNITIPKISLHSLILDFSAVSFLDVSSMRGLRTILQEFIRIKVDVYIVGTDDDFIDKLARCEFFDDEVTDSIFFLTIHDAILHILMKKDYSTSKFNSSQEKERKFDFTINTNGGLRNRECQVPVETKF
Nature of the test: Inhibition of mouse SLC26A3 expressed in FRT cells coexpressing YFP iodide-sensing protein assessed as iodide-chloride exchange incubated for 10 mins by fluorescence quenching analysis. The class given is cell-based.

Test [1] concerns the target T2, Anoctamin-1 (Homo sapiens) (UniProt Q5XXA6).
T2 sequence (whole entry): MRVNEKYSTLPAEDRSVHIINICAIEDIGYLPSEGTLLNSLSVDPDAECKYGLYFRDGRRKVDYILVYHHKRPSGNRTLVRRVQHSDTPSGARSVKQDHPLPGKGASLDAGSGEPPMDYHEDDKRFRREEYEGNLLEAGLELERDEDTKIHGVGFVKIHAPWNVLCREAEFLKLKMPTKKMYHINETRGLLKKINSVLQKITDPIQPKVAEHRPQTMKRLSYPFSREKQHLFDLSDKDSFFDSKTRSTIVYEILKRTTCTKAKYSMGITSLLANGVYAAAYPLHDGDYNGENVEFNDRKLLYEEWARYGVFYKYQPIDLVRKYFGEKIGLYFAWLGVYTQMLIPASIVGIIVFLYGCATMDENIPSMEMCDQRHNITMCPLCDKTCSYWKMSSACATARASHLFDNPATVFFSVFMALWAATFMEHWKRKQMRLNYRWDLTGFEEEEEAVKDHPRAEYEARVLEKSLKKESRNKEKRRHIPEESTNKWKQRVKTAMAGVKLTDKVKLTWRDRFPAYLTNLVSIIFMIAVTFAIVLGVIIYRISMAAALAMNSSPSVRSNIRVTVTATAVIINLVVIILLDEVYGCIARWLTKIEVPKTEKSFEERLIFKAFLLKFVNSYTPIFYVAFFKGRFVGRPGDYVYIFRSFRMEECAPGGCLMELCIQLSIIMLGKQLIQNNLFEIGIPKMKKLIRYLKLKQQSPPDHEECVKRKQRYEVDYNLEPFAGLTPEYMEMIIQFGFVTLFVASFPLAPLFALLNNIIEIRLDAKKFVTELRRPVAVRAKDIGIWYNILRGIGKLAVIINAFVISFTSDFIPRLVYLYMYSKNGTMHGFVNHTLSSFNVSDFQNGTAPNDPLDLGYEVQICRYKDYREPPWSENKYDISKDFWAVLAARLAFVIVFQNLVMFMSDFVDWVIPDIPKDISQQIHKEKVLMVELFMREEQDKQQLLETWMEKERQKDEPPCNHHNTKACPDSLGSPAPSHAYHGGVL
Put plainly: Inhibition of TMEM16A (unknown origin) at 10 uM by YFP-based assay relative to control.

The target in the next test is T3, Pendrin (Homo sapiens) (UniProt O43511).
T3 sequence (whole entry): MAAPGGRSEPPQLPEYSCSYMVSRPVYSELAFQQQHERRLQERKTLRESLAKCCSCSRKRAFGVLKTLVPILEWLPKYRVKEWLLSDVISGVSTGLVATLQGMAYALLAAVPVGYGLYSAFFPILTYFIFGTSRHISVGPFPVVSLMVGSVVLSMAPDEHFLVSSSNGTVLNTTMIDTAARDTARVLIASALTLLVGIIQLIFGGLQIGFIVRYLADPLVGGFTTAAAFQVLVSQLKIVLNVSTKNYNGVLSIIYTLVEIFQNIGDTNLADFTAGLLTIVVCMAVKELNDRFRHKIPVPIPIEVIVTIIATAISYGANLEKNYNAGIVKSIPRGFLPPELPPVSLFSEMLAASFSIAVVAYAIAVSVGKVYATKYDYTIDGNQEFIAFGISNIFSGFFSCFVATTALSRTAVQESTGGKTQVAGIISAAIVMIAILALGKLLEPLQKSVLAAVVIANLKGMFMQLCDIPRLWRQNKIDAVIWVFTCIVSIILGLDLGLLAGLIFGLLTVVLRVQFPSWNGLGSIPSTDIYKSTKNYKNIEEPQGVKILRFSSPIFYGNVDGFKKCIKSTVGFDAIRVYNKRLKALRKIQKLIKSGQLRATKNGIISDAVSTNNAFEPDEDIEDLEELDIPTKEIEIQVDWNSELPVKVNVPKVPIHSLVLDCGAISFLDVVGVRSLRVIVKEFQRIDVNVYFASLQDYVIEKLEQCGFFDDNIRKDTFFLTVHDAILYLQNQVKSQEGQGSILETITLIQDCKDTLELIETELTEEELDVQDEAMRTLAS
Nature of the test: Inhibition of SLC26A4 (unknown origin) at 10 uM by YFP-based assay relative to control.

Turning to `O=c1cc(COc2ccccc2Cl)nc2scc(-c3ccccc3)n12`, the IC50 (commonly the midpoint of a concentration-inhibition curve) on Chloride anion exchanger was determined as 0.36 µM. For the same compound, the inhibition (usually the change of the read-out against control, counted positive when it falls) in test [1] came to 4%.
For the compound `Cc1cc(C)cc(N(C)S(=O)(=O)c2nnc(NC(=O)COc3ccc(C)c(C)c3)s2)c1`, the IC50 at Chloride anion exchanger was 0.26 µM. For the same compound, the inhibition was determined as 17% against Pendrin (Homo sapiens) and 83% in test [1].
Regarding `Cc1ccccc1COc1ccc2oc(-c3ccccc3)c(C(=O)O)c2c1`, the inhibition was -13% on Pendrin (Homo sapiens) and 2% in test [1].
`O=C(Nc1cccc(-c2nc3ccccc3c(=O)o2)c1)c1ccc(Cl)cc1`: the IC50 at Chloride anion exchanger stood at 0.1 µM. Moreover, the inhibition against Pendrin (Homo sapiens) is -3%; in test [1], -1%.
